Literature values, collected in PubChem BioAssay AID1259409 (Chemical Carcinogenesis Research Information System (CCRIS), 2018).

Test system: rodent chemically induced tumor inhibition, incidence and multiplicity
Assay: CCRIS tumor inhibitor studies

CCO
tumour outcome (control, treated, inhibition, significance) (Carcinogen: ETHYL CARBAMATE, 51-79-6, Dose [Inhibitor]: 0, 20% SIMULTANEOUSLY WITH CARCINOGEN 1/D FOR WK (STUDY DURATION: 16 WK), Route [Inhibitor]: GAVAGE, Species: MOUSE, Strain/Sex: NMRI/FEMALE, Target Tissue: Type of Lesion: LUNG: ADENOMA, Dose [Carcinogen]: 180 MG/KG IN 20% ETHANOL 1/D FOR 8 WK (CONTROL GROUP ADMINISTERED CARCINOGEN IN WATER), Promoter: NONE USED): 100%, 100%, 0%, not significant
tumour outcome (control, treated, inhibition, significance) (Carcinogen: ETHYL CARBAMATE, 57-79-6, Dose [Inhibitor]: 0, 12% ADMINISTERED WITH CARCINOGEN IN DRINKING WATER FOR 41 WK (STUDY DURATION: 41 WK), Route [Inhibitor]: ORAL, Species: MOUSE, Strain/Sex: C3H/MALE, Target Tissue: Type of Lesion: LIVER: HEMANGIOENDOTHELIOMA, Dose [Carcinogen]: 10 MG/KG IN DRINKING WATER FOR 41 WK, Promoter: NONE USED): 5%, 5%, 0%, not significant
tumour outcome (control, treated, inhibition, significance) (Carcinogen: N-METHYL-N'-NITRO-N-NITROSOGUANIDINE, 70-25-7, Dose [Inhibitor]: 0, 10% IN DRINKING WATER FOR 51 WK BEGINNING 1 WK POST CARCINOGEN DOSE, 5% NACL INCLUDED IN THE DIET OF TREATED RATS (ST, Route [Inhibitor]: ORAL, Species: RAT, Strain/Sex: F344/MALE, Target Tissue: Type of Lesion: FORESTOMACH: CARCINOMA IN SITU, Dose [Carcinogen]: 150 MG/KG BW ONCE, Promoter: CATECHOL, 120-89-9): 3/15 (20%), 5/14 (36%), -80%, not significant
tumour outcome (control, treated, inhibition, significance) (Carcinogen: N-METHYL-N'-NITRO-N-NITROSOGUANIDINE, 70-25-7, Dose [Inhibitor]: 0, 10% IN DRINKING WATER FOR 51 WK BEGINNING 1 WK POST CARCINOGEN DOSE, 5% NACL INCLUDED IN THE DIET OF TREATED RATS (ST, Route [Inhibitor]: ORAL, Species: RAT, Strain/Sex: F344/MALE, Target Tissue: Type of Lesion: FORESTOMACH: PAPILLOMA, Dose [Carcinogen]: 150 MG/KG BW ONCE, Promoter: CATECHOL, 120-80-9): 15/15 (100%), 12/14 (86%), 14%, not significant
tumour outcome (control, treated, inhibition, significance) (Carcinogen: N-METHYL-N'-NITRO-N-NITROSOGUANIDINE, 70-25-7, Dose [Inhibitor]: 0, 10% IN DRINKING WATER FOR 51 WK BEGINNING 1 WK POST CARCINOGEN DOSE, 5% NACL INCLUDED IN THE DIET OF TREATED RATS (ST, Route [Inhibitor]: ORAL, Species: RAT, Strain/Sex: F344/MALE, Target Tissue: Type of Lesion: FORESTOMACH: SQUAMOUS CELL CARCINOMA, Dose [Carcinogen]: 150 MG/KG BW ONCE, Promoter: CATECHOL, 120-80-9): 15/15 (100%), 8/14 (57%), 43%, p<0.01
tumour outcome (control, treated, inhibition, significance) (Carcinogen: N-METHYL-N'-NITRO-N-NITROSOGUANIDINE, 70-25-7, Dose [Inhibitor]: 0, 10% IN DRINKING WATER FOR 51 WK BEGINNING 1 WK POST CARCINOGEN DOSE, 5% NACL INCLUDED IN THE DIET OF TREATED RATS (ST, Route [Inhibitor]: ORAL, Species: RAT, Strain/Sex: F344/MALE, Target Tissue: Type of Lesion: GLANDULAR STOMACH: ADENOCARCINOMA, Dose [Carcinogen]: 150 MG/KG BW ONCE, Promoter: CATECHOL, 120-80-9): 11/15 (73%), 4/14 (29%), 60%, p<0.02
tumour outcome (control, treated, inhibition, significance) (Carcinogen: N-METHYL-N'-NITRO-N-NITROSOGUANIDINE, 70-25-7, Dose [Inhibitor]: 0, 10% IN DRINKING WATER FOR 51 WK BEGINNING 1 WK POST CARCINOGEN DOSE, 5% NACL INCLUDED IN THE DIET OF TREATED RATS (ST, Route [Inhibitor]: ORAL, Species: RAT, Strain/Sex: F344/MALE, Target Tissue: Type of Lesion: GLANDULAR STOMACH: ADENOMA, Dose [Carcinogen]: 150 MG/KG BW ONCE, Promoter: CATECHOL, 120-80-9): 15/15 (100%), 13/14 (93%), 7%, not significant
tumour outcome (control, treated, inhibition, significance) (Carcinogen: N-NITROSOMETHYLBENZYLAMINE, 937-40-6, Dose [Inhibitor]: 1-2% IN LIQUID DIET ON DAY 1 AND INCREASING TO 7% BY DAY 8 OF AGENT TREATMENT AND CONTINUING FOR 12 WK (STUDY DURATION:, Route [Inhibitor]: ORAL, Species: RAT, Strain/Sex: SPRAGUE-DAWLEY/MALE, Target Tissue: Type of Lesion: ESOPHAGUS: PAPILLOMA, Dose [Carcinogen]: 2.5 MG/KG 3/WK FOR 3 WK BEGINNING THE LAST 3 WK OF AGENT TREATMENT, Promoter: NONE USED): 10/26 (38%), 3/13 (23%), 39%, p<0.01
tumour outcome (control, treated, inhibition, significance) (Carcinogen: URETHANE, 51-79-6, Dose [Inhibitor]: 5% (VOL/VOL) IN DRINKING WATER CONCURRENTLY WITH CARCINOGEN FOR 12 WK (STUDY DURATION: 12 WK), Route [Inhibitor]: ORAL, Species: MOUSE, Strain/Sex: A/PH/FEMALE, Target Tissue: Type of Lesion: LUNG: ADENOMA, Dose [Carcinogen]: 200 PPM IN DRINKING WATER FOR 12 WK, Promoter: NONE USED): 100%, 100%, 0%, not calculated
tumour outcome (control, treated, inhibition, significance) (Carcinogen: URETHANE, 51-79-6, Dose [Inhibitor]: 5% (VOL/VOL) IN DRINKING WATER CONCURRENTLY WITH CARCINOGEN FOR 12 WK (STUDY DURATION: 12 WK), Route [Inhibitor]: ORAL, Species: MOUSE, Strain/Sex: A/PH/FEMALE, Target Tissue: Type of Lesion: LUNG: ADENOMA, Dose [Carcinogen]: 500 PPM IN DRINKING WATER FOR 12 WK, Promoter: NONE USED): 100%, 100%, 0%, not calculated
tumour outcome (control, treated, inhibition, significance) (Carcinogen: URETHANE, 51-79-6, Dose [Inhibitor]: 5% (VOL/VOL) IN DRINKING WATER CONCURRENTLY WITH CARCINOGEN FOR 12 WK (STUDY DURATION: 12 WK), Route [Inhibitor]: ORAL, Species: MOUSE, Strain/Sex: A/PH/FEMALE, Target Tissue: Type of Lesion: LUNG: ADENOMA, Dose [Carcinogen]: 1000 PPM IN DRINKING WATER FOR 12 WK, Promoter: NONE USED): 100%, 100%, 0%, not calculated
tumour outcome (control, treated, inhibition, significance) (Carcinogen: URETHANE, 51-79-6, Dose [Inhibitor]: 10% (VOL/VOL) IN DRINKING WATER CONCURRENTLY WITH CARCINOGEN FOR 12 WK (STUDY DURATION: 12 WK), Route [Inhibitor]: ORAL, Species: MOUSE, Strain/Sex: A/PH/FEMALE, Target Tissue: Type of Lesion: LUNG: ADENOMA, Dose [Carcinogen]: 200 PPM IN DRINKING WATER FOR 12 WK, Promoter: NONE USED): 100%, 80%, 20%, p<0.001
tumour outcome (control, treated, inhibition, significance) (Carcinogen: URETHANE, 51-79-6, Dose [Inhibitor]: 10% (VOL/VOL) IN DRINKING WATER CONCURRENTLY WITH CARCINOGEN FOR 12 WK (STUDY DURATION: 12 WK), Route [Inhibitor]: ORAL, Species: MOUSE, Strain/Sex: A/PH/FEMALE, Target Tissue: Type of Lesion: LUNG: ADENOMA, Dose [Carcinogen]: 500 PPM IN DRINKING WATER FOR 12 WK, Promoter: NONE USED): 100%, 100%, 0%, not calculated
tumour outcome (control, treated, inhibition, significance) (Carcinogen: URETHANE, 51-79-6, Dose [Inhibitor]: 10% (VOL/VOL) IN DRINKING WATER CONCURRENTLY WITH CARCINOGEN FOR 12 WK (STUDY DURATION: 12 WK), Route [Inhibitor]: ORAL, Species: MOUSE, Strain/Sex: A/PH/FEMALE, Target Tissue: Type of Lesion: LUNG: ADENOMA, Dose [Carcinogen]: 1000 PPM IN DRINKING WATER FOR 12 WK, Promoter: NONE USED): 100%, 100%, 0%, not calculated
tumour outcome (control, treated, inhibition, significance) (Carcinogen: URETHANE, 51-79-6, Dose [Inhibitor]: 20% (VOL/VOL) IN DRINKING WATER CONCURRENTLY WITH CARCINOGEN FOR 12 WK (STUDY DURATION: 12 WK), Route [Inhibitor]: ORAL, Species: MOUSE, Strain/Sex: A/PH/FEMALE, Target Tissue: Type of Lesion: LUNG: ADENOMA, Dose [Carcinogen]: 200 PPM IN DRINKING WATER FOR 12 WK, Promoter: NONE USED): 100%, 100%, 0%, not calculated
tumour outcome (control, treated, inhibition, significance) (Carcinogen: URETHANE, 51-79-6, Dose [Inhibitor]: 20% (VOL/VOL) IN DRINKING WATER CONCURRENTLY WITH CARCINOGEN FOR 12 WK (STUDY DURATION: 12 WK), Route [Inhibitor]: ORAL, Species: MOUSE, Strain/Sex: A/PH/FEMALE, Target Tissue: Type of Lesion: LUNG: ADENOMA, Dose [Carcinogen]: 500 PPM IN DRINKING WATER FOR 12 WK, Promoter: NONE USED): 100%, 100%, 0%, not calculated
tumour outcome (control, treated, inhibition, significance) (Carcinogen: URETHANE, 51-79-6, Dose [Inhibitor]: 20% (VOL/VOL) IN DRINKING WATER CONCURRENTLY WITH CARCINOGEN FOR 12 WK (STUDY DURATION: 12 WK), Route [Inhibitor]: ORAL, Species: MOUSE, Strain/Sex: A/PH/FEMALE, Target Tissue: Type of Lesion: LUNG: ADENOMA, Dose [Carcinogen]: 1000 PPM IN DRINKING WATER FOR 12 WK, Promoter: NONE USED): 100%, 100%, 0%, not calculated
